Source: US20160106723A1, “METHODS TO SENSE AND TREAT SUBCLINICAL SKIN DAMAGE” (priority 2014, published 2016)

Legend:
[1] = test system: normal human skin; conditions: cited from earlier work
[2] = test system: subclinical skin damage in unblemished skin; assay: Topical treatment of unblemished skin of participants, observed skin reaction (photographs); format: in vivo, human; conditions: participant
From the text: The response of sun or UV damaged cells to Imiquimod in these non-suspicious areas are indicative of altered cells. Clearly subclinical skin damage or AK may exist in the skin but may not be clinically evident in their early development as appearing in FIGS. 1A, 2A, 3A, 4A, 5A, 6A, and 7A.
The detailed method of treatment of subclinical skin damage and of inducing an immune cell response in unblemished skin involves topical application of formulation essentially comprising Imiquimod in an effective amount during a cycle of therapy that is in the range of two to four weeks; and observing the skin for the response; wherein the composition is administered once or twice daily during the cycle of therapy, which is repeated at least once on a substantially annual basis.

Compound: CC(C)Cn1cnc2c(N)nc3ccccc3c21 [Imiquimod]
- effect on IL-10 production [1]: reduced IL-10 production
- effect on resident T cells [1]: induced activation of resident T cells
- skin reaction after treatment ([2]; FIG. 1B, chest region, 11 days of treatment, strength about 3.75%): severe erythema
- skin reaction after treatment ([2]; FIG. 2B, chest region, fourteen days of treatment, strength about 5.00%): moderate erythema
- skin reaction after treatment ([2]; FIG. 3B, chest region, fourteen days of treatment, strength about 3.75%): moderate erythema
- skin reaction after treatment ([2]; FIG. 5B, forehead region, fifteen days of treatment, strength about 3.75%): moderate reaction
- skin reaction after treatment ([2]; FIG. 6B, scalp region, ten days of treatment, strength about 2.5%): moderate reaction
- skin reaction after treatment ([2]; FIG. 7B, cheek region, fourteen days of treatment, strength about 2.5%): moderate reaction
- skin reaction after treatment ([2]; FIG. 8A, cheek region, fourteen days of treatment, strength about 2.5%): moderate reaction
- skin reaction after treatment ([2]; FIG. 8B and 8C, forehead region, fourteen days of treatment, strength about 2.5%): moderate reaction
- skin reaction after treatment ([2]; FIGS. 4B and 4C, cheek region, twelve days of treatment, strength about 2.5%): mild reaction
